This is an account of results in patent US8704037B2, “Targeted cell death” (priority 2007, dated 2014).

Assay [1] deals with GFAP+ cells (astrocytes). Briefly: pLpGFAP(iCP9)MG injected into corpus callosum, then CID into ipsilateral ventricle. Type of assay: in vivo, rat. As to conditions: 24 hours after CID. The method, then:
The system was tested in vivo to ensure that cell specific apoptosis could be induced and the timing of cell ablation controlled as it was in vitro. To this end, virus was injected into the corpus callosum of adult Fischer rats and then three weeks later CID was administered into the ipsilateral ventricle. Rats were sacrificed 24-hours thereafter, brains removed in whole, fixed and cyrosectioned for analysis. […] The TUNEL (TdT-mediated dUTP-X nick end-labeling) system adds a tag on to DNA that has been fragmented during the apoptosis cascade allowing for labeling using standard immunohistochemistry. Thin sections derived from control rats receiving glycerol rather than CID were TUNEL negative. Consecutive thin sections were then stained with anti-GFAP antibody to identify astrocytes. […] This confirmed that in vivo the iCP9 system induces apoptosis only after CID administration and effectively ablates GFAP+ astrocytes.

For assay [2], the system named is primary oligodendrocyte cultures. Kind of assay: CID-induced cell death in primary oligodendrocyte cultures transduced with iCP9 virus. The format is cell-based, rat. As to conditions: CID 10 nM; iCP9-expressing primary oligodendrocyte cultures; fluorescent microscope and Methylene Blue viability staining. The method, then: To induce timely cell death. Collected virus was used to transduce primary oligodendrocyte cultures that have been established. Cells were cultured and evaluated using fluorescent microscopy for the expression of GFP. The extent of GFP positive cells correlated with the viral infection efficacy. Cell protein isolation was conducted and protein isolates were subjected to Western blot transfer to detect stable expression of the iCP9 protein. The resultant membrane was probed with anti-caspase 9 antibody (R&D Systems Inc. #AF8301). Once the stable expression of iCP9 was confirmed at the protein level with Western blot techniques, the CID was applied to these cells in culture at a 10 nM concentration. […] Cell death was detected by viewing cultures under the fluorescent microscope and by using Methylene Blue (Sigma) viability staining of cells in culture after exposure to the CID. All experiments were run in parallel using the astrocyte-derived U87 cell line as a negative control.
Establish primary oligodendrocyte cultures. […] The status of cellular differentiation was monitored by noting the change in cellular morphology in culture. […]
Once this system and differentiation pattern was confirmed, A2B5^+ primary cell cultures were cultured in pΔmbpICP9/mEGFP viral supernatant for 8 hours. […] Infected cells expressed EGFP and were readily identified using the proper fluorescent filter system. […]

Assay [3] concerns infected region of the CNS. Kind of assay: pΔmbpICP9/mEGFP virus applied to the CNS, then intraperitoneal CID. The format is in vivo, rat. The settings on record: CID via intraperitoneal injection after virus injection. The method, then: The virus described above, pΔmbpICP9/mEGFP, which contains the inducible caspase 9 sequence was applied to the CNS of adult rats to create an in vivo model of CNS demyelination. Administration of the viral vector allowed effective transfer of genetic information in a variable area of parenchyma based on the rate of administration (convective distribution) and viral titer. […] First, adult Fischer rats were anaesthetized by intraperitoneal injection of ketamine hydrochloride (80 mg/kg) and xylazine ([…]) and placed in a stereotactic frame. A midline scalp incision is made. Access to brain parenchyma was accomplished by placement of a right-sided burr hole through the skull, at various predetermined coordinates depending on the desired location of the lesion. […] The volume of viral vector (e.g., lentivirus) delivered depends upon the infection efficacy as determined herein and the target area size. After injection, the needle is left in place for five minutes and then slowly withdrawn over the next four minutes. The skin was closed with sutures.
For virus administration to the spinal cord an incision was made in the thoracic spine followed by a lamenectomy to expose the spinal cord. A No. 32S-gauge needle was passed into the posterior column at predetermined coordinates.

The next assay concerns A2B5+ cells. Kind of assay: Mixed cortical cultures infected with pLpPDGFR(iCP9)MG and exposed to CID. Type of assay: cell-based, rat. As to conditions: four hours after CID, loss of viable cell morphology. An excerpt: To confirm the cell specificity of the PDGFR-α promoter system, rat-derived primary cortical cultures were infected with pLpPDGFR(iCP9)MG virus. […] This provides data supporting the oligoprecursor-specificity of the PDGFR-α promoter system.

The test system of a further assay is 293T cells. Kind of assay: CID-induced apoptosis in 293T cells transfected with iCP9 lentivirus or control virus. The format is cell-based. The method, then: (§1) EGFP is also produced from the same viral plasmid and promoter. […] However, cells not transfected with virus (EGFP negative) persisted in culture. […] A Cell Death Detection ELISA Plus (Roche Inc) was also performed to determine the level of apoptosis in culture after cells infected with various dilutions of virus were exposed to CID.

Assay [4] has as its system GFAP+ cells (astrocytes). Kind of assay: Pan purified GFAP+ cultures infected with pLpGFAP(iCP9)MG and exposed to CID. The settings on record: 4 hours after CID. Type of assay: cell-based. An excerpt: To test the specificity of the GFAP promoter system, GFAP+ pan purified cultures (cultures of purified astrocytes) were transfected with pLpGFAP(iCP9)MG and exposed to CID.

For assay [5], the system named is primary oligodendrocyte cultures. The settings on record: pΔmbpICP9/mEGFP virus; based on published data in other cell types (Straathof et al., 2005); cited from earlier work.
The test system of assay [6] is MBP+ cells (oligodendrocytes). Kind of assay: Mixed cortical cultures infected with pLpMBP(iCP9)MG and exposed to CID. The format is cell-based, rat. The method, then:
High density mixed cortical cultures were established after isolation of cerebral cortices from 3 Fischer rats as previously described. Cerebral cortices were removed and place in ice-cold Hanks' balanced salt solution, centrifuged and digested with trypsin at 37° for 10 minutes. Tissue was centrifuged and resuspended in minimal essential medium with Earle's salt (Invitrogen) containing heat-inactivated fetal bovine serum and horse serum. Cell suspension was passed through cell strainers and plated. After three hours the medium is changed to Neurobasal medium supplemented with B27 MinusAO (Invitrogen). Cultures were maintained for seven days and then immunohistochemical staining was performed to verify the composition of the cultures.
The mixed primary cortical cultures (consisting of all CNS cell types) were infected with pLpMBP(iCP9)MG and exposed to CID and then analyzed for cell death of oligodendrocytes (MBP+ cells). The MBP promoter was designed to induce cell death only in MBP+ cells, the majority of which are mature oligodendrocytes.

Assay [7] concerns oligodendrocytes (MBP staining cells). Briefly: pLpMBP(iCP9)MG injected into corpus callosum, then CID. Type of assay: in vivo, rat. As to conditions: after CID.
The subject of assay [8] is cells infected with virus encoding iCP9. Briefly: Cell Death Detection ELISA Plus after virus dilutions and CID. Type of assay: cell-based. The settings on record: various dilutions of iCP9 virus, 4 hours after CID. The method, then:
FIG. 6 is a graph showing cells exposed to various dilutions of virus encoding the iCP9 gene and then CID was added to the culture media. 4 hours later, Apoptosis ELISA was performed. […] Thus apoptosis correlated with iCP9 gene expression. X-axis is virus dilution. Y-axis is ELISA absorption at 405 nm.
as §1

Molecules are shown by their SMILES.

With `CC[C@H](C(=O)N1CCCC[C@H]1C(=O)O[C@H](CCc1ccc(OC)c(OC)c1)c1cccc(OCC(=O)NCC(CNC(=O)COc2cccc([C@@H](CCc3ccc(OC)c(OC)c3)OC(=O)[C@@H]3CCCCN3C(=O)[C@@H](CC)c3cc(OC)c(OC)c(OC)c3)c2)CN(C)C)c1)c1cc(OC)c(OC)c(OC)c1` [CID], in the assay on GFAP+ cells (astrocytes) [1], the “anti-GFAP staining at area of viral infection” value is given as “GFAP+ cells were not detected at the area of viral infection”. Also, the TUNEL staining entry with GFAP+ cells (astrocytes) [1] (glycerol controls TUNEL negative) was “TUNEL positive staining at the site of virus infection”. Also, the “cell death of infected cells” value in [2] was “induced the cellular death of infected cells”. Besides, the “apoptosis of infected CNS region” value in [3] is recorded as “resulting in apoptosis of the infected region of the CNS”. In the assay on A2B5+ cells, the “apoptosis of A2B5+ cells” value is “identified undergoing apoptosis”. The “apoptosis of EGFP-positive cells after CID” value in the assay on 293T cells (293T cells, pLpCMV(iCP9)MG virus) is on record as “rapidly underwent apoptosis”. The “EGFP-positive cells after CID, control virus” value in the assay with 293T cells (cultures transfected with control virus pLpCMVXMG) is listed as “EGFP-positive cells persisted”. Further, in the assay with GFAP+ cells (astrocytes) [4], the “EGFP positive cells after CID” value was “a decrease in EGFP positive cells”. For the same molecule, the “time to cell death of oligodendrocytes after CID” value in assay [5] was 4 to 6 h. For the same molecule, the “morphology of A2B5/EGFP, GFAP/EGFP and O4/EGFP positive cells” value in assay [6] (non-target cell types) is “appeared morphologically normal before and after CID exposure”. Moreover, the “morphology of MBP-positive, EGFP-positive cells after CID” value in assay [6] (relative to cells not exposed to CID) is “appeared disrupted”. Moreover, the “anti-MBP staining at site of infection” value in assay [7] (glycerol controls normal) is reported as “failed to stain with anti-MBP antibody at the site of infection”. Moreover, the TUNEL positive cells entry in assay [7] (not in glycerol controls) is on record as “TUNEL positive cells were identified at the site of infection”. The “apoptosis level (ELISA absorption at 405 nm)” value in assay [8] is “Apoptosis levels decreased with dilution of virus”.
